Reference: US20150259371A1, “METHODS AND COMPOUNDS FOR INHIBITING GLYCOSYLTRANSFERASES” (SIMON FRASER UNIVERSITY, priority 2010, published 2015)
Entries after “also recorded” stand apart in the source; their conditions may differ. Where a name gives a salt, the structure may show the parent alone.

Tests used:
[1] = system: sialyl-Lewis X (sLeX) expression in HepG2 cells; assay: Immunoblot and lectin blot of HepG2 lysates; format: cell-based, human
Protocol: More specifically, monolayers of Hep G2 cells were grown to about 75% confluency in DMEM containing 10% FBS before they were switched to serum free media for 10 h. FBS-free conditions were utilized to limit the amount of fucose which could be made available to cells upon degradation of serum glycoproteins. Cells were subsequently exposed to peracetylated 5-thio-L-fucose (5-T-Fuc) in serum free media for 48 h after which the media were collected, gently centrifuged (800 rpm, 10 min, 4° C.) to remove dead cells, and concentrated (˜10-fold) by centrifugal filration (Amicon, NMWCO 3000 daltons). Cells were washed with cold PBS prior to harvesting them in PBS+0.5% SDS. Proteins were solubilised upon sonication (2 blasts, 10 sec, 15% power) and protein concentrations were determined for all samples by the DC protein concentration assay (BioRad). Samples were normalized prior to analysis. Identical amounts of proteins were analyzed for all lectin-blotting experiments. Cell extracts and conditioned media containing secreted proteins were all analyzed on 8% polyacrylamide gels (FIG. 10).
Monolayers of HepG2 cells were exposed to 50 μM 5-T-Fuc for varying lengths of time before they were harvested as described above. When necessary, fresh media and inhibitors were added after 24 h. Alternatively, cells were exposed to 5-T-Fuc for 24 h after which the media was replaced and cells were harvested at the indicated time-points (FIG. 11).

[2] = system: core (α1,6)-fucosylation in CHO K1 cells; assay: Aleura aurantia lectin blot of CHO K1 cells; format: cell-based; conditions: CHO K1, 48 h
OGT [3] = target: T1, OGT (Homo sapiens, UniProt O15294); assay: OGT transfer: UDP-sugar as donor, nup62 acceptor, UDP production by CE; format: biochemical
T1 construct: made in house
T1 sequence (O15294 whole entry): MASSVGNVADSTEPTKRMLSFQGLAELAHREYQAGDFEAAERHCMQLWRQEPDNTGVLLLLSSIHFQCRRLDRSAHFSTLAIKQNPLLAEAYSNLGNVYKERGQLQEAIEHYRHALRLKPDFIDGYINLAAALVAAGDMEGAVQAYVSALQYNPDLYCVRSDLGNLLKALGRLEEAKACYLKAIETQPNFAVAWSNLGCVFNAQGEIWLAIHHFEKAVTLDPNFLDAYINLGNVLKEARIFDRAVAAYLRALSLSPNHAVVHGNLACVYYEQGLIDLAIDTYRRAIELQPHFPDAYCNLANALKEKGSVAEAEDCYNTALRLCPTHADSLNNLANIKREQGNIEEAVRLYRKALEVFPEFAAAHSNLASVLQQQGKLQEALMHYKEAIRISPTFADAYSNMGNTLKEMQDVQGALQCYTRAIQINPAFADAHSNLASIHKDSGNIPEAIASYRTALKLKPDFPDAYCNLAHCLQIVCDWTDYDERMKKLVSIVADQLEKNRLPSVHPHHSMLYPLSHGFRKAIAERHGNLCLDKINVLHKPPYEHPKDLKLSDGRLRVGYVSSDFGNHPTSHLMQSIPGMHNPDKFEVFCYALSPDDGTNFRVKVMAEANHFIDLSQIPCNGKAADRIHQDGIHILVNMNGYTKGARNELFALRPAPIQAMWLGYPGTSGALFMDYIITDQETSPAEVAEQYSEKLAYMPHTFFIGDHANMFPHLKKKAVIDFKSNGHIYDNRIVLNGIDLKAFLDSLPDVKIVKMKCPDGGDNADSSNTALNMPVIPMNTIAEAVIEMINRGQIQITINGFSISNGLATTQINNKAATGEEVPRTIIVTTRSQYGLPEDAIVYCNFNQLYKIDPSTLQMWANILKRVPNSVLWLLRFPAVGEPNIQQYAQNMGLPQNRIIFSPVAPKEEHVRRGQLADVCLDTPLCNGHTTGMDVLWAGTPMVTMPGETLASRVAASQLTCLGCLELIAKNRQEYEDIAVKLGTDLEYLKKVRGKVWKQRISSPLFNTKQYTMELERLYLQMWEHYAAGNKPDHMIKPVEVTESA
Protocol: Capillary electrophoresis (CE): CE was performed on a ProteomeLab PA800 (Beckman-Coulter) using fused silica capillaries of […]×44 cm (to detector). The running buffer was 40 mM Na2B4O7 (Sigma), pH 9.5, containing 1.0% (wv) polyethylene glycol (MW 20,000; Fluka) and filtered prior to use. The capillary was conditioned by washing with 1 N NaOH (2 min, 20 psi), 18 MΩ H2O (3 min, 20 psi) and running buffer (5 min, 40 psi). After injecting a short (15 nL) H2O plug, samples were electrostatically introduced and pre-concentrated at the anode by applying a potential of -0.5 kV for 10 s according to the field-amplified sample injection technique described by Chien and Burgi^39. […] Electropherograms were derived by measuring the absorbance at 254 (+/−10) nm at a rate of 4 Hz. […]
OGT transfer: The ability of OGT (which was over-expressed and purified as described in Ref. ^40) to transfer UDP-5SGlcNAc was tested using recombinant nup62 as the acceptor. […] Production of UDP was monitored at 254 nm; the concentration was determined from a standard curve of UDP standards, which were prepared in triplicate using the same procedure as the reactions, at a concentration of between […] Controls in the absence of nup62 were subtracted to account for OGT-catalyzed hydrolysis of the UDP-sugars.

OGT [4] = target: T1, OGT; conditions: literature refs 40, 53; read-out: Km of natural substrate for OGT; cited from earlier work
[5] = system: anti-O-GlcNAc antibody CTD110.6; assay: Blocking of anti-O-GlcNAc antibody binding to modified nup62; conditions: 0-3 mM
Protocol: Blocking antibody interactions: Recombinantly modified nup62 was run on a gel and transferred onto nitrocellulose membrane. CTD110.6 at the appropriate dilution was incubated with 0-3 mM Me-GlcNAc or Me-5SGlcNAc for 1 h prior to applying to the membrane overnight at 4° C. The standard procedure for western blots was subsequently followed.

For `C[C@H](S)[C@@H](O)[C@@H](O)[C@H](O)C=O` [Compound 5-T-Fuc, 5-thiofucose], the “sLeX expression, time course” value ([1]; HepG2, 50 μM) was “reduces sLeX expression in a time-dependant fashion”, the “Aleura aurantia lectin reactivity” value ([1]; HepG2, 48 h) was “no decrease in Aleura aurantia lectin reactivity was observed” and the “Maackia amurensis lectin binding” value ([1]; HepG2, 48 h) was “dose-dependent increase in Maackia amurensis lectin binding”. For the same compound, the “time to full recovery of sLeX expression after exposure” value ([1]; HepG2, after a 24 h exposure) was ≤ 24 h, the “sLeX expression, dose response” value ([1]; HepG2, serum free media, 48 h, anti-CD15s) was “significant, dose-dependent decrease in sLe^X expression; also recorded: reduces sialyl-lewis X expression in HepG2 liver cells” and the “core-fucosylated antigens by Aleura aurantia lectin” value [2] was “no further decrease in lectin reactivity was observed above inhibitor concentrations of 5 μM; also recorded: reduction in core (α1,6)-fucosylation”.

For `CC(=O)N[C@@H]1[C@@H](O)[C@H](O)[C@@H](CO)S[C@@H]1OP(=O)(O)OP(=O)(O)OC[C@H]1O[C@@H](n2ccc(=O)[nH]c2=O)[C@H](O)[C@@H]1O` [UDP-5SGlcNAc, 5′-(2-acetamido-2-deoxy-5-thio-a-D-glucopyranosyl)diphosphate triethylammonium salt], the “fold worse donor substrate for OGT as compared to UDP-GlcNAc” value (OGT [3]) was “approximately 14 fold”.

In the case of “uridine diphospho-N-acetylglucosamine [UDP-GlcNAc]”, the Km (OGT [4]) is given as 2 to 7 µM.

With `CO[C@H]1S[C@H](CO)[C@@H](O)[C@H](O)[C@H]1NC(C)=O` [Compound 16, Methyl 2-acetamido-2-deoxy-5-thio-a-D-glucopyranoside] the “blocking of CTD110.6 binding” value [5] was “blocks binding almost as well as Me-GlcNAc”.
